Experimental data taken from patent US4210754A, “Morpholino containing benzamides” (Hoffmann-La Roche Inc., priority 1978, dated 1980).

Experiments:
[1] = toxicity (LD50) p.o. in mice; details: mouse, in vivo, po
Description: (§1) The MAO inhibiting activity of the compounds of formula I of the invention can be determined using standard methods. Thus, the compounds of formula I to be tested were administered p.o. to rats. One hour thereafter the animals were killed and the MAO inhibiting activity in the liver homogenates was measured according to the method described in Biochem. Pharmacol. 12 (1963) 1439-1441. The activity thus determined of representative compounds of the present invention and their toxicity can be seen from the ED50 values (μmol/kg.p.o. in rats) and LD50 values (mg/kg, p.o. in mice) listed in the Table which follows: […]

monoamine oxidase (MAO) = test: MAO inhibiting activity in liver homogenates of rats after p.o. administration; type: in vivo; details: animals killed one hour after administration, MAO measured in liver homogenates, 60 min
Description: as §1

[2] = toxicity (LD50) p.o. in rats; details: rat, in vivo, po, after 10 days

O=C(NCCN1CCOCC1)c1ccc(Br)cc1 [p-bromo-N-(2-morpholinoethyl)-benzamide]
LD50 [1]: 1250 to 2500 mg/kg
ED50 (MAO inhibiting activity) (monoamine oxidase (MAO)): 6 µmol/kg

O=C(NCCN1CCOCC1)c1ccc(F)cc1 [p-fluoro-N-(2-morpholinoethyl)-benzamide]
LD50 [1]: 1250 to 2500 mg/kg
ED50 (MAO inhibiting activity) (monoamine oxidase (MAO)): 11 µmol/kg

O=C(NCCN1CCOCC1)c1ccc(C(F)(F)F)cc1 [α,α,α-trifluoro-N-(2-morpholinoethyl)-p-toluamide]
LD50 [1]: 1000 to 2000 mg/kg
ED50 (MAO inhibiting activity) (monoamine oxidase (MAO)): 16 µmol/kg

O=C(NCCN1CCOCC1)c1ccc(Cl)cc1 [p-chloro-N-(2-morpholinoethyl)-benzamide]
LD50 at 240 h [2]: 707 ± 55 mg/kg
ED50 (MAO inhibiting activity) (monoamine oxidase (MAO)): 5 µmol/kg

O=C(NCCN1CCOCC1)c1ccc(I)cc1 [p-iodo-N-(2-morpholinoethyl)-benzamide]
LD50 [1]: 1250 to 2500 mg/kg
ED50 (MAO inhibiting activity) (monoamine oxidase (MAO)): 4 µmol/kg

O=C(NCCN1CCOCC1)c1ccc(Cl)cc1Cl [2,4-dichloro-N-(2-morpholinoethyl)-benzamide]
LD50 [1]: 1250 to 2500 mg/kg
ED50 (MAO inhibiting activity) (monoamine oxidase (MAO)): 13 µmol/kg

O=C(NCCN1CCOCC1)c1ccc(Cl)cc1[N+](=O)[O-] [4-chloro-N-(2-morpholinoethyl)-2-nitrobenzamide]
ED50 (MAO inhibiting activity) (monoamine oxidase (MAO)): 2 µmol/kg

CC(C)(C)c1ccc(C(=O)NCCN2CCOCC2)cc1 [p-t-butyl-N-(2-morpholinoethyl)-benzamide]
LD50 [1]: 1250 to 2500 mg/kg
ED50 (MAO inhibiting activity) (monoamine oxidase (MAO)): 16 µmol/kg
